According to patent US20260200943A1, “COMPOUNDS FOR TREATING CANCER” (Genesis Therapeutics, Inc., priority 2022, published 2026):
Read-outs that look alike come from different tables or passages of the source.

Columns and labels:
CDK2/CyclinA2 = target: T1, CDK2/CyclinA2 (Homo sapiens, UniProt P24941); assay: CDK2/CyclinA2 ChEF Assay (AQT, Table C); format: biochemical; conditions: 10xKm; for Ki: AQT ChEF, read-out: CDK2/CCNA2 AQT10xKm Ki: Average Ki; for CDK2/CCNA2 AQT10xKm Ki: CDK2/A2 Selectivity over CDK1/B1 / CDK2/CCNA2 AQT10xKm Ki: CDK2/A2 Selectivity over CDK9: AQT
T1 construct: Wild-type, full length CDK2 in complex with wildtype, full length CyclinA2: Carna Cat #04-103; purchased Carna 04-103
Description: (§1) 16 nL of 1000× compound in 100% DMSO is added to a 384-well low volume, black assay plate. 12 μL of 1.3×CDK2/CyclinA2 (Wild-type, full length CDK2 in complex with wildtype, full length CyclinA2: Carna Cat #04-103 diluted in assay buffer (54 mM Hepes, 0.012% Brij-35, 10 mM MgCl2, 0.55 mM EGTA, 1% Glycerol, 0.02% BSA, and 1.2 mM DTT) is added to the plates on top of the compound and pre-incubated for 30 minutes at room temperature. Following the incubation, 4 uL of 4×Sox-chromophore (CSox) labeled peptide substrate (AQT0297, AssayQuant) & ATP diluted in assay buffer is added to the plate to initiate the reaction. The assay is incubated at room temperature for 90 min after initiation. The CSox peptide substrate is phosphorylated by CDK2/A2 upon ATP hydrolysis.
(§2) The fluorescent intensity measurement of the assay plate is read on a microplate reader once the assay is initiated and again at the completion of the assay. Phosphorylation of the CSox-based peptide substrate sensor results in an immediate increase in fluorescence. These raw fluorescence intensity values are normalized to calculate percent inhibition, which are fit to a four-parameter logistic curve and IC50 values are calculated. IC50 values are converted to Ki using substrate, KM^app values, and the Cheng-Prusoff equation.

CDK1/CyclinB1 = target: T2, CDK1/CyclinB1 (Homo sapiens, UniProt P06493); assay: CDK1/CyclinB1 ChEF Assay (AQT, Table C); format: biochemical; conditions: 10xKm, read-out: CDK1/CCNB1 AQT AQT10xKm Ki: Average Ki
T2 construct: Wild-type, full length CDK1 in complex with wildtype, full length CyclinB1: Carna Cat #04-102; purchased Carna 04-102
Description: as §1, with “1.3×CDK1/CyclinB1” for “1.3×CDK2/CyclinA2”, “CDK1” for “CDK2”, “CyclinB1:” for “CyclinA2:”, “#04-102)” for “#04-103”, “120” for “90”, “CDK1/B1” for “CDK2/A2”
as §2

CDK9/CyclinT1 [1] = target: T3, CDK9/CyclinT1 (Homo sapiens, UniProt P50750); assay: CDK9/CyclinT1 Mobility Shift Assay (Caliper, Table B); format: biochemical; design: Wild-type, full length CDK9 in complex with wildtype, CyclinT1 (1-259): Biortus Cat #BP480/792/691; purchased Biortus BP480/792/691; conditions: read-out: CDK9/Cyclin T1 Caliper Ki: Average Ki
Description: 10 nL of 2000× compound in 100% DMSO is added to a 384-well polypropylene assay plate. 15 μL of 1.3×CDK9/T1 and 1.3× fluorescent substrate (Wild-type, full length CDK9 in complex with wildtype, CyclinT1 (1-259): Biortus Cat #BP480/792/691 and FL-Peptide 34: PerkinElmer Cat #760643) diluted in kinase buffer (50 mM Hepes, 0.01% Brij-35, 10 mM MgCl2, 1 mM EGTA, 0.05% BSA, and 2 mM DTT) is added to the plates on top of the compound, mixed, and pre-incubated for 30 minutes at room temperature. The fluorescently labeled peptide substrate is phosphorylated by CDK9/T1 upon ATP hydrolysis. Following the incubation, 5 μL of 4×ATP diluted in kinase buffer is added to the plate to initiate the reaction. Following the 30-minute incubation, the reaction is stopped by adding 75 μL of stopping buffer containing 0.5 M EDTA.
The assay plate is then read on a Lab Chip EZ Reader which separates the fluorescently labeled substrate and product peptides through a mobility difference. The phosphorylation of the substrate imparts a negative charge, which allows differences in separation as both are pulled through the microfluidic chip. The ratio of substrate and product values are used to generate percent conversion. These raw percent conversion values are normalized to calculate percent inhibition, which are fit to a four-parameter logistic curve and IC50 values are calculated. IC50 values are converted to Ki using substrate, Kmapp values, and the Cheng-Prusoff equation.

CDK9/CyclinT1 [2] = target: T3, CDK9/CyclinT1; assay: CDK9/CyclinT1 ChEF Assay (AQT, Table C); format: biochemical; design: Wild-type, full length CDK9 in complex with wildtype, CyclinT1 (1-259): Biortus Cat #BP480/792/691; purchased Biortus BP480/792/691; conditions: 10XKm
Description: 16 nL of 1000× compound in 100% DMSO is added to a 384-well low volume, black assay plate. 12 μL of 1.3×CDK9/CyclinT1 (Wild-type, full length CDK9 in complex with wildtype, CyclinT1 (1-259): Biortus Cat #BP480/792/691) diluted in assay buffer (54 mM Hepes, 0.012% Brij-35, 10 mM MgCl2, 0.55 mM EGTA, 1% Glycerol, 0.02% BSA, and 1.2 mM DTT) is added to the plates on top of the compound and pre-incubated for 30 minutes at room temperature. Following the incubation, 4 μL of 4×Sox-chromophore (CSox) labeled peptide substrate (AQT0449, AssayQuant) & ATP diluted in assay buffer is added to the plate to initiate the reaction. The assay is incubated at room temperature for 180 min after initiation. The CSox peptide substrate is phosphorylated by CDK9/T1 upon ATP hydrolysis.
as §2

[3] = from C=CCNC(=O)O[C@@H]1CC[C@H](c2cc(Nc3ccc(S(=O)(=O)NCC=C)cc3F)nn2C(C)(C)C)C1; rcm bond; 20-membered ring; Grubbs Cat. M204; DCE; 1.92 mM; 25.0 °C
[4] = from C=CCNC(=O)O[C@@H]1CC[C@H](c2cc(Nc3ccc(S(=O)(=O)NCC=C)cc3F)nn2C(C)(C)C)C1; rcm bond; Grubbs Cat. M204 (Grubbs II); DCE; 1.92 mM; 25.0 °C; 40.0 h

T3 sequence (P50750 whole entry): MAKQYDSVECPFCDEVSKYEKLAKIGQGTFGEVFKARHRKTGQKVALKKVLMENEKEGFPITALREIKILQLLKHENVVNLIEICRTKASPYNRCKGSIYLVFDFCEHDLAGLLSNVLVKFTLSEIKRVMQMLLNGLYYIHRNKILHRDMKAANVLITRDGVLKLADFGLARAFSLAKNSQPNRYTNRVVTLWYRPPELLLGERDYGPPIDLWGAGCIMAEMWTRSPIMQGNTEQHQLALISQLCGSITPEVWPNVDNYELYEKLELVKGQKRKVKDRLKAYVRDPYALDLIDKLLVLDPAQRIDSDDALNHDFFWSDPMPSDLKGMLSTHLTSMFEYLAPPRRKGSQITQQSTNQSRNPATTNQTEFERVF
T3 sequence (O60563 1-259 partner limits assumed): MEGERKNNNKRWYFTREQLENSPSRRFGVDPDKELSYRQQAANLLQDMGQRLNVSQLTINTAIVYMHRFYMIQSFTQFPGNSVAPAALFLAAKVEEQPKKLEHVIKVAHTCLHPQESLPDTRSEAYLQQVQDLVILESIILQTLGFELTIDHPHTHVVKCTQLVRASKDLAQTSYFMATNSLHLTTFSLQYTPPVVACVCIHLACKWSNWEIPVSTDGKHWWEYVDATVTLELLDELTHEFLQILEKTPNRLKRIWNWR
T2 sequence (P06493 whole entry): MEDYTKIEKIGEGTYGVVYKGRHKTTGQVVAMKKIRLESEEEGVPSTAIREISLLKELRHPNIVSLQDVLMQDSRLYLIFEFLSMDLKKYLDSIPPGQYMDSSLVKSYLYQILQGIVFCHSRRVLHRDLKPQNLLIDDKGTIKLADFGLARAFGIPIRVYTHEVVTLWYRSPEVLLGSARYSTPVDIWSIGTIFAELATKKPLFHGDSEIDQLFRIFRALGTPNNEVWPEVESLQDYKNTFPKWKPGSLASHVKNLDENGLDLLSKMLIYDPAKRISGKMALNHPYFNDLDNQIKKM
T2 sequence (P14635 whole entry partner): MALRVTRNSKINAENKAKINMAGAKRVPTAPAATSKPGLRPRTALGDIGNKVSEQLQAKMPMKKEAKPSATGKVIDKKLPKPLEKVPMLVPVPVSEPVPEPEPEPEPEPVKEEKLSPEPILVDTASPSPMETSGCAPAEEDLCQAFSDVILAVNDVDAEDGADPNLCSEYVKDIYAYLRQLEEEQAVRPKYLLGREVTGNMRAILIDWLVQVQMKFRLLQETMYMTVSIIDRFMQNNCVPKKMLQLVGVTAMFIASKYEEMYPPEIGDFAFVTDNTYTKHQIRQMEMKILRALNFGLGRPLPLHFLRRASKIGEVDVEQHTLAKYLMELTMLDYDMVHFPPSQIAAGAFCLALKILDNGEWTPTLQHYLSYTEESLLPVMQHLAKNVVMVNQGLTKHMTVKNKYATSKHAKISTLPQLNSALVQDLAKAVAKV

| Ki (CDK2/CyclinA2) [nM] | CDK2/CCNA2 AQT10xKm Ki: CDK2/A2 Selectivity over CDK1/B1 (CDK2/CyclinA2) | CDK2/CCNA2 AQT10xKm Ki: CDK2/A2 Selectivity over CDK9 (CDK2/CyclinA2) | Ki (CDK1/CyclinB1) [nM] | Ki (CDK9/CyclinT1 [1]) [nM] | Ki (CDK9/CyclinT1 [2]) [nM] | Compound | further results |
| --- | --- | --- | --- | --- | --- | --- | --- |
|  |  |  |  |  |  | Cn1ncc2c1C(=O)NCCCCCOc1nc(ncc1Cl)NC1CCN(CC1)S2(=O)=O | ring closure, isolated yield (from Cn1ncc(S(=O)(=O)N2CCC(N)CC2)c1C(=O)NCCCCCOc1nc(Cl)ncc1Br, snar bond, 19-membered ring, K2CO3, DMSO, 6.02 mM, 110.0 °C): 33% |
| < 1 | A (A>10) | A (A>10) | 1 to 25 | ≥ 100 | 1 to 25 | NS(=O)(=O)c1ccc2cc1OCCCCCNC(=O)O[C@H]1CC[C@H](C1)c1cnc(nc1)N2 (stereo in doubt) [Compound 103, 12-oxo-5,13-dioxa-3,11-diaza-2(5,2)-pyrimidina-4(1,3)-benzena-1(1,3)-cyclopentanacyclotridecaphane-44-sulfonamide] |  |
| < 1 | A (A>10) | A (A>10) | 1 to 25 | ≥ 100 | ≥ 100 | NS(=O)(=O)c1ccc2cc1OCCCCCNC(=O)O[C@H]1CC[C@H](C1)c1cnc(nc1)N2 (stereo in doubt) [Compound 104, rel-(2R,5S)-7-oxo-6,14-dioxa-8,20,22,25-tetraazatetracyclo[19.2.2.1^{2,5}.1^{15,19}]heptacosa-1(23),15,17,19(26),21,24-hexaene-16-sulfonamide] |  |
|  |  |  |  |  |  | CC(C)(C)OC(=O)NCCCCCNc1cc(Nc2ncc(C3CCC(OC(=O)Oc4ccc([N+](=O)[O-])cc4)C3)cn2)ccc1S(=O)(=O)NC(=O)OC(C)(C)C (centres unmarked) | ring closure, isolated yield (the molecule shown is the open-chain precursor, other bond, 20-membered ring, HCOOH, then DIEA, DMF, 76.7 mM, 50.0 °C, 2 steps): 39.5% |
|  |  |  |  |  |  | CC(C)(C)n1nc2cc1[C@H]1CC[C@H](C1)OC(=O)NCC=CCNS(=O)(=O)c1ccc(c(F)c1)N2 | ring closure, yield after HPLC [3]: 29%; ring closure, yield of all isomers [4]: 29% |
|  |  |  |  |  |  | (1^1S,1^3R,Z)-2^1H-15-oxa-5-thia-3,6,13-triaza-2(5,3)-pyrazola-4(1,4)-cyclohexana-1(1,3)-cyclopentanacyclopentadecaphan-14-one 5,5-dioxide | ring closure, isolated yield (other bond, 22-membered ring, TFA, then DIPEA, DCM/DCE, 4.26 mM, 25.0 °C, 2 steps): 50% |
